Values joined by “and” are separate entries in the source; they are usually repeats but may differ in a detail not shown here. Equal values may be shown once.
The compounds below were run against Poly [ADP-ribose] polymerase 1 (Homo sapiens, UniProt P09874) (assay: Inhibitory concentration against purified poly ADP-ribose polymerase-1 done in PARP inhibition assay kit).
Poly [ADP-ribose] polymerase 1, sequence (P09874 whole entry): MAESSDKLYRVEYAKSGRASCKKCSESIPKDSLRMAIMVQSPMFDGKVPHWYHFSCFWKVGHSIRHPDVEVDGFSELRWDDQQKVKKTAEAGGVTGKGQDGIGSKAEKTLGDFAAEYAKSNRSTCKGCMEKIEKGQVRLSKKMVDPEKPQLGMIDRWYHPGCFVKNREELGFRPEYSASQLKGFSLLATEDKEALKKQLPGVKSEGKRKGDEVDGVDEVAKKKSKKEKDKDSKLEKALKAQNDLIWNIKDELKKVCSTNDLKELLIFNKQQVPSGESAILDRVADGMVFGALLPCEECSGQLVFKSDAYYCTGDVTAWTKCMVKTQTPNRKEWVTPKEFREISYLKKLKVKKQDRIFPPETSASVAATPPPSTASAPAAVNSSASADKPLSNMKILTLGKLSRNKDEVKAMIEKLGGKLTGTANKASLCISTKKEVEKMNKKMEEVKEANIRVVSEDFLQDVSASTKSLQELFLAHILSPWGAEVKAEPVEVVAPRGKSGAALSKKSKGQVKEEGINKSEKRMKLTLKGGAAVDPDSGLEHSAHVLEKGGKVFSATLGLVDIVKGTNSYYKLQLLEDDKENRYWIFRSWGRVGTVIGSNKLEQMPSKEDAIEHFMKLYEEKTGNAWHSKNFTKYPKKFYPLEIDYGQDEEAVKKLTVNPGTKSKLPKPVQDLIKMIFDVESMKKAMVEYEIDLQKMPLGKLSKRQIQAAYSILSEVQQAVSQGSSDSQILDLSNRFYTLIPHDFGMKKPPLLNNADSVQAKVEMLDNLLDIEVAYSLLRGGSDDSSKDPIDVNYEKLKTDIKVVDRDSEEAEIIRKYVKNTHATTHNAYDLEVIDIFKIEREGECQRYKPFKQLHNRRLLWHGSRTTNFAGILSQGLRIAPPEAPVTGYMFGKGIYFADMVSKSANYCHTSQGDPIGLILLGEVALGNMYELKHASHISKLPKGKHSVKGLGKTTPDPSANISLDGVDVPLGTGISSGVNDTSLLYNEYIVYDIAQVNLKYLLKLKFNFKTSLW

Compound	IC50
O=c1[nH]c2c(c3ccccc13)Cc1cc(F)ccc1-2	650 nM
Nc1ccc2c(c1)-c1[nH]c(=O)c3ccccc3c1C2	300 nM
O=S(=O)(NCCCNN1CCOCC1)c1cc2c(cc1F)-c1nc(O)c3ccccc3c1C2	450 nM
O=S(=O)(O)c1ccc2c(c1)Cc1c-2nc(O)c2ccccc12	700 nM
O=c1[nH]c2c(c3ccccc13)Cc1cc(S(=O)(=O)n3ccnc3)c(F)cc1-2	500 nM
O=c1[nH]c2c(c3ccccc13)Cc1cc(S(=O)(=O)NCCCn3ccnc3)ccc1-2	394 nM

The remaining lines, values ahead:

IC50	Compound
> 3000 nM and 400 nM	O=C(CN1CCOCC1)Nc1ccc2c(c1)-c1nc(O)c3ccccc3c1C2
300 nM	O=c1[nH]c2c(c3ccccc13)Cc1cc([N+](=O)[O-])ccc1-2
500 nM	O=[N+]([O-])c1ccc2c(c1)-c1nc(O)c3ccccc3c1C2
> 3000 nM	CN1CCN(CC(=O)Nc2ccc3c(c2)-c2[nH]c(=O)c4ccccc4c2C3)CC1
> 3000 nM	O=c1[nH]c2c(c3ccccc13)Cc1ccccc1-2
98 nM	Nc1ccc2c(c1)Cc1c-2[nH]c(=O)c2ccccc12
> 3000 nM	O=c1[nH]c2c(c3ccccc13)Cc1cc(S(=O)(=O)NCCCc3ccccc3)ccc1-2
500 nM	Oc1nc2c(c3ccccc13)Cc1ccc(F)cc1-2

Reference: ChEMBL document CHEMBL1141136, “Discovery of potent poly(ADP-ribose) polymerase-1 inhibitors from the modification of indeno[1,2-c]isoquinolinone” (J Med Chem, 2005)
